Results taken from PMC12067278, “A responsive living material prepared by diffusion reveals extracellular enzyme activity of cyanobacteria” (Proceedings of the National Academy of Sciences of the …, 2025).

Target: T1, AmiX (Synpcc7942_1548 gene product, putative amidase) (Synechococcus elongatus, UniProt Q31MZ1)
T1 construct: expressed in E. coli BL21, clarified lysate assayed; ORF PCR product ~1,320 bp
T1 sequence (Q31MZ1 1-439 limits assumed): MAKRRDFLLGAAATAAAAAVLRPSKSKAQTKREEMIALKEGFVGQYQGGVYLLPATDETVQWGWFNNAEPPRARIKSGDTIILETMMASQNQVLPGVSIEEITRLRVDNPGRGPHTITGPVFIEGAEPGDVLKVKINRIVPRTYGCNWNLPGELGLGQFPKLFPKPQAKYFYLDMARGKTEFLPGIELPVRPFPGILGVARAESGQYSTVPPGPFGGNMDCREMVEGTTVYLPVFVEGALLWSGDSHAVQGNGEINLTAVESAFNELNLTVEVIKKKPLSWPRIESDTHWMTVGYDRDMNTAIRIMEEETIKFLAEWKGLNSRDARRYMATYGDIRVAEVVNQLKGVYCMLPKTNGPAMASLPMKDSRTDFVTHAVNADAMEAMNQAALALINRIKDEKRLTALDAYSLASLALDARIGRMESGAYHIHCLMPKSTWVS
Assay: NBD-Cl amine-detection fluorescence assay ([…] nm), E. coli lysate
Type: biochemical
Settings: 50 mM potassium phosphate pH 7.5, 2.5 mM NIPAm (50 uL of 50 mM in 1 mL), 20 h, high lysate background

With `C=CC(=O)NC(C)C` [NIPAm, N-isopropylacrylamide] the “NBD-Cl amine-detection fluorescence assay (485/538 nm), E. coli lysate” value was “the lysate containing both the S. elongatus amidase and NIPAm produced significantly more fluorescence”.
